{"source": "patent US8906826B2", "about": "“Herbicidal compositions comprising 4-amino-3-chloro-5-fluoro-6-(4-chloro-2-fluoro-3-methoxyphenyl) pyridine-2-carboxylic acid or a derivative thereof and imidazolinones” (Dow AgroSciences, LLC, priority 2012, dated 2014)", "key": {"ECHCO": {"test_system": "ECHCO", "experiment": "Postemergence foliar-applied, direct seeded rice weeds (Example I)", "type": "in vivo, Echinochloa colona (L.) Link", "description": "(§1) Seeds or nutlets of the desired test plant species were planted in a soil matrix prepared by mixing a loam or sandy loam soil (e.g., 28.6 percent silt, 18.8 percent clay, and 52.6 percent sand, with a pH of about 5.8 and an organic matter content of about 1.8 percent) and calcareous grit in an 80 to 20 ratio. The soil matrix was contained in plastic pots with a volume of 1 quart and a surface area of 83.6 cm^2. When required to ensure good germination and healthy plants, a fungicide treatment and/or other chemical or physical treatment was applied. The plants were grown for 8-22 days in a greenhouse with an approximate 14 h photoperiod which was maintained at about 29° C. during the day and 26° C. during the night. Nutrients (Peters Excel® 15-5-15 5-Ca 2-Mg and iron chelate) were applied in the irrigation solution as needed and water was added on a regular basis. Supplemental lighting was provided with overhead metal halide 1000-Watt lamps as necessary. The plants were employed for testing when they reached the first through fourth true leaf stage.\n(§2) Treatments consisted of the acid or esters of 4-amino-3-chloro-5-fluoro-6-(4-chloro-2-fluoro-3-methoxy-phenyl)pyridine-2-carboxylic acid (Compound A), each formulated as an SC (suspension concentrate), and various herbicidal components alone and in combination. Forms of compound A were applied on an acid equivalent basis.\n(§3) Other herbicidal components were applied on an acid equivalent basis and include acetolactate synthase (ALS)-inhibiting herbicides (imidazolinone chemical class) imazethapyr ammonium salt formulated as Newpath®, imazamox ammonium salt formulated as Beyond®, imazapic ammonium salt formulated as Plateau®, imazapyr isopropylamine salt formulated as Arsenal®, imazamethabenz-methyl (technical material) and imazaquin isopropylamine salt formulated as Scepter®/Imagine®.\n(§4) Treatment requirements were calculated based upon the rates being tested, the concentration of active ingredient or acid equivalent in the formulation, and a 12 mL application volume at a rate of 187 L/ha.\nFor treatments comprised of formulated compounds, measured amounts of compounds were placed individually in 25 mL glass vials and diluted in a volume of 1.25% (v/v) Agri-Dex® crop oil concentrated to obtain 12× stock solutions. […]\n(§5) For treatments comprised of formulated and technical compounds, weighed amounts of the technical materials were placed individually in 25 mL glass vials and dissolved in a volume of 97:3 v/v acetone/DMSO to obtain 12× stock solutions, and measured amounts of the formulated compounds were placed individually in 25 mL glass vials and diluted in a volume of 1.5% (v/v) crop oil concentrate or water to obtain 12× stock solutions. […]"}, "SONAR": {"test_system": "SONAR", "experiment": "Postemergence herbicidal activity in forage crops (Example IV)", "type": "in vivo, Sonchus arvensis L.", "conditions": "after approximately 21 days", "method": "Seeds or root cuttings of the desired test plant species were planted in Sun Gro MetroMix® 306 planting mixture, which typically has a pH of about 6.0 to about 6.8 and an organic matter content of about 30 percent, in plastic pots with a surface area of 126.6 square centimeters (cm^2). When required to ensure good germination and healthy plants, a fungicide treatment and/or other chemical or physical treatment was applied. The plants were grown for 14-60 days in a greenhouse with an approximate 14 hour photoperiod which was maintained at about 28° C. during the day and about 24° C. during the night. Nutrients and water were added on a regular basis and supplemental lighting was provided with overhead metal halide 1000-Watt lamps as necessary. The plants were employed for testing when they reached the BBCH13 to BBCH23 leaf stage.\nTreatments consisted of the benzyl ester of 4-amino-3-chloro-5-fluoro-6-(4-chloro-2-fluoro-3-methoxy-phenyl)pyridine-2-carboxylic acid (Compound A), formulated as a SC (suspension concentrate), and a second herbicide alone and in combination.\nA measured aliquot of Compound A was placed in a 25 milliliter (mL) glass vial and diluted in a volume of 1.25% (v/v) Agri-Dex® crop oil concentrate to obtain stock solutions. Compound requirements are based upon a 12 mL application volume at a rate of 187 liters per hectare (L/ha). Spray solutions of the second cereal herbicide and experimental compound mixtures were prepared by adding the stock solutions to the appropriate amount of dilution solution to form 12 mL spray solution with active ingredients in two- and three-way combinations. Formulated compounds were applied to the plant material with an overhead Mandel track sprayer equipped with an 8002E nozzle calibrated to deliver 187 L/ha over an application area of 0.503 square meters (m^2) at a spray height of 18 inches (46 cm) above average plant canopy. Control plants were sprayed in the same manner with the solvent blank.\nThe treated plants and control plants were placed in a greenhouse as described above and watered by sub-irrigation to prevent wash-off of the test compounds. After approximately 21 days, the condition of the test plants, as compared with that of the control plants, was determined visually and scored on a scale of 0 to 100 percent where 0 corresponds to no injury and 100 corresponds to complete kill.\nColby's equation was used to determine the herbicidal effects expected from the mixtures (Colby, S. R. 1967. Calculation of the synergistic and antagonistic response of herbicide combinations. Weeds 15:20-22.).\nThe following equation was used to calculate the expected activity of mixtures containing two active ingredients, A and B: Expected=A+B−(A×B/100)"}, "IPOHE": {"test_system": "IPOHE", "experiment": "Postemergence foliar-applied, direct seeded rice weeds (Example I)", "type": "in vivo, Ipomoea hederacea Jacq.", "description": "as §1, §2, §3, §4\nFor treatments comprised of formulated compounds, measured amounts of compounds were placed individually in 25 mL glass vials and diluted in a volume of 1.25% (v/v) Agri-Dex® crop oil concentrated to obtain 12× stock solutions. […] Application solutions were prepared by adding an appropriate amount of each stock solution (e.g., 1 mL) and diluted to the appropriate final concentrations with the addition of 10 mL of an aqueous mixture of 1.25% (v/v) crop oil concentrate so that the final spray solutions contained 1.25+/−0.05% (v/v) crop oil concentrate.\nFor treatments comprised of technical compounds, weighed amounts can be placed individually in 25 mL glass vials and dissolved in a volume of 97:3 v/v acetone/DMSO to obtain 12× stock solutions. […] Application solutions can be prepared by adding an appropriate amount of each stock solution (e.g., 1 mL) and diluted to the appropriate final concentrations with the addition of 10 mL of an aqueous mixture of 1.5% (v/v) crop oil concentrate so that the final spray solutions contain 1.25% (v/v) crop oil concentrate. When technical materials are used, the concentrated stock solutions can be added to the spray solutions so that the final acetone and DMSO concentrations of the application solutions are 16.2% and 0.5%, respectively.\nas §5"}, "[1]": {"conditions": "Compound A Benzyl Ester 17.5 gae/ha"}}, "data": [{"smiles": "Cc1cnc(C2=NC(C)(C(C)C)C(=O)N2)c(C(=O)O)c1.N", "note": "(racemic) [Imazapic ammonium, ammonium (±)-2-[4,5-dihydro-4-methyl-4-(1-methylethyl)-5-oxo-1H-imidazol-2-yl]-5-methyl-3-pyridinecarboxylic acid]", "values": [{"measurement": "Visual Weed Control (%) - 25 DAA ECHCO Obs", "setting": "ECHCO; Imazapic ammonium 17.5 gae/ha", "result": 70, "unit": "%"}, {"measurement": "SONAR Obs", "setting": "SONAR; Imazapic ammonium 17.5 gae/ha", "result": 0, "unit": "%"}]}, {"smiles": "COc1c(Cl)ccc(-c2nc(C(=O)OCc3ccccc3)c(Cl)c(N)c2F)c1F", "note": "[Compound A Benzyl Ester, benzyl ester of 4-amino-3-chloro-5-fluoro-6-(4-chloro-2-fluoro-3-methoxy-phenyl)pyridine-2-carboxylic acid]", "values": [{"measurement": "Visual Weed Control (%) - 21 DAA IPOHE Obs", "setting": "IPOHE; Compound A Benzyl Ester 4.38 gae/ha", "result": 0, "unit": "%"}, {"measurement": "Visual Weed Control (%) - 21 DAA IPOHE Obs", "setting": "IPOHE; Compound A Benzyl Ester 8.75 gae/ha", "result": 10, "unit": "%"}, {"measurement": "Visual Weed Control (%) - 21 DAA IPOHE Obs", "setting": "IPOHE; [1]", "result": 25, "unit": "%"}, {"measurement": "SONAR Obs", "setting": "SONAR; Compound A Benzyl Ester 4.4 gae/ha", "result": 65, "unit": "%"}, {"measurement": "SONAR Obs", "setting": "SONAR; Compound A Benzyl Ester 8.8 gae/ha", "result": 100, "unit": "%"}, {"measurement": "SONAR Obs", "setting": "SONAR; [1]", "result": 95, "unit": "%"}]}, {"smiles": "COc1c(Cl)ccc(-c2nc(C(=O)O)c(Cl)c(N)c2F)c1F", "note": "[Compound A Acid, 4-amino-3-chloro-6-(4-chloro-2-fluoro-3-methoxyphenyl)-5-fluoropyridine-2-carboxylic acid]", "values": [{"measurement": "Visual Weed Control (%) - 25 DAA ECHCO Obs", "setting": "ECHCO; Compound A Acid 4.38 gae/ha", "result": 60, "unit": "%"}, {"measurement": "Visual Weed Control (%) - 25 DAA ECHCO Obs", "setting": "ECHCO; Compound A Acid 8.75 gae/ha", "result": 65, "unit": "%"}, {"measurement": "Visual Weed Control (%) - 25 DAA ECHCO Obs", "setting": "ECHCO; Compound A Acid 17.5 gae/ha", "result": 90, "unit": "%"}, {"measurement": "Visual Weed Control (%) - 21 DAA IPOHE Obs", "setting": "IPOHE; Compound A Acid 4.38 gae/ha", "result": 0, "unit": "%"}, {"measurement": "Visual Weed Control (%) - 21 DAA IPOHE Obs", "setting": "IPOHE; Compound A Acid 8.75 gae/ha", "result": 10, "unit": "%"}, {"measurement": "Visual Weed Control (%) - 21 DAA IPOHE Obs", "setting": "IPOHE; Compound A Acid 17.5 gae/ha", "result": 30, "unit": "%"}]}]}
